The values below come from patent US10793557B2, “Sting agonist compounds” (Merck Sharp & Dohme Corp., priority 2018, dated 2020).

In assay [1] the target is T1, full-length WT STING (Homo sapiens, UniProt Q86WV6, H232R).
T1 construct: AviTag (after gg linker) (C); HRV3C cleavage site (after gs linker) (C); HIS8 (C); made in house; host or cells: Trichoplusia ni (Hi-Five) insect cells infected with baculovirus (virus generated and amplified in Sf21 cells); used as a washed membrane preparation
The experiment in a line: 3H-cGAMP filtration binding assay (WT STING). To be noted: competition with tritiated cGAMP, WT STING membrane. The procedure, abridged:
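Competitive filtration binding of [3H]cGAMP (16 nM working stock) to T. ni membranes overexpressing full-length WT human STING, 60 min at RT in PBS. Bound radioactivity counted after GF/B filtration; 10-point 1:3 titration, EC50 from 4-parameter fit after control normalisation.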

Assay [2] concerns secretion of interferon-beta from THP1 cells. Put plainly: IFN-β secretion in THP1 cell culture (5 h). It is filed as cell-based. To be noted: Homo sapiens, THP-1, 5 h, compound at 3 uM, 30 uM cGAMP = 100%, read-out: % Effect relative to 2′3′-cGAMP (@ 3 uM). The procedure, abridged: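 Thawed THP1 cells (0.8×10^6/mL, RPMI with 0.5% FBS) exposed to compounds 1.5–30000 nM (0.3% DMSO) for 5 h at 37 °C. Supernatant IFN-β quantified by AlphaLISA. Percent effect normalised to 30 uM cGAMP and DMSO controls; EC50 from 4-parameter fit.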

Assay [3] has as its target T2, full-length HAQ STING (Homo sapiens, UniProt Q86WV6, G230A/H232R/R293Q/R71H).
T2 construct: AviTag (after GG linker) (C); HRV3C cleavage site (after GS linker) (C); HIS8 (C); made in house; host or cells: Trichoplusia ni (Hi-Five) insect cells infected with baculovirus (virus generated and amplified in Sf21 cells); used as a washed membrane preparation
Put plainly: 3H-cGAMP filtration binding assay (HAQ STING). To be noted: competition with tritiated cGAMP, HAQ STING membrane. The procedure, abridged: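 Hi-Five (T. ni) membranes overexpressing the STING variant (2.2 ug/ml working) preincubated with compound 60 min at RT in PBS, then [3H]cGAMP (8 nM working stock) added for 60 min at RT. Bound radioactivity captured on GF/B filters and counted by scintillation; EC50 from 4-parameter fit of control-normalized activity.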

T1 sequence (Q86WV6 with tags, fused parts or gaps H232R): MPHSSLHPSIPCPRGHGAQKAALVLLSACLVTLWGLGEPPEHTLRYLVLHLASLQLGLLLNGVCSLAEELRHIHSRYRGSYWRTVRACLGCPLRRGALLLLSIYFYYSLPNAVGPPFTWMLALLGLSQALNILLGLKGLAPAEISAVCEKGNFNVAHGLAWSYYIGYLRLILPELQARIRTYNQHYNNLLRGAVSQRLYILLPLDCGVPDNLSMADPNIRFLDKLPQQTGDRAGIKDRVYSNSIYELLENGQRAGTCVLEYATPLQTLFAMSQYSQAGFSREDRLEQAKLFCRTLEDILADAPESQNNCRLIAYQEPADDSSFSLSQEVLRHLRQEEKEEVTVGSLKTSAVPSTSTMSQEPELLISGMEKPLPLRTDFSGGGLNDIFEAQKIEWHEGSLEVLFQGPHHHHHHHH
T2 sequence (Q86WV6 with tags, fused parts or gaps R71H/G230A/H232R/R293Q): as the sequence (Q86WV6 with tags, fused parts or gaps H232R) above, with R71H, G230A, R293Q counted along it

As usually defined, the EC50 is the midpoint of the concentration-response curve. With `COc1cc2sc(CC[C@H](C)C(=O)O)cc2c(F)c1OCCCOc1c(O)cc2sc(C(=O)C[C@H](C)C(=O)O)cc2c1Cl` [Example 186, (S)-4-(5-(3-((2-((S)-3-carboxybutyl)-4-fluoro-6-methoxybenzo[b]thiophen-5-yl)oxy)propoxy)-4-chloro-6-hydroxybenzo[b]thiophen-2-yl)-2-methyl-4-oxobutanoic acid], the EC50 came to 756 nM in assay [1] and 133 nM in assay [3]. For the same compound, the activation at 3 µM in assay [2] came out at 56%.
The corresponding values for `COc1cc2sc(C(=O)C[C@H](C)C(=O)O)cc2c(Cl)c1OCCCOc1c(O)cc2sc(C(=O)C[C@H](C)C(=O)O)cc2c1Cl` [Example 187, (S)-4-(5-(3-((2-((S)-3-carboxybutanoyl)-4-chloro-6-hydroxybenzo[b]thiophen-5-yl)oxy)propoxy)-4-chloro-6-methoxybenzo[b]thiophen-2-yl)-2-methyl-4-oxobutanoic acid] are 46 nM, 4 nM and 128%.
The corresponding values for `COc1cc2sc(C(=O)C[C@H](C)C(=O)O)cc2c(F)c1OCCCOc1c(O)cc2sc(C(=O)C[C@H](C)C(=O)O)cc2c1F` [Example 188, (S)-4-(5-(3-((2-((S)-3-carboxybutanoyl)-4-fluoro-6-hydroxybenzo[b]thiophen-5-yl)oxy)propoxy)-4-fluoro-6-methoxybenzo[b]thiophen-2-yl)-2-methyl-4-oxobutanoic acid] are 1 nM, 1 nM and 104%.
The matching figures for `COc1cc2sc(C(=O)C[C@H](C)C(=O)O)cc2cc1OCCCOc1c(O)cc2sc(C(=O)C[C@H](C)C(=O)O)cc2c1F` [Example 189, (S)-4-(5-(3-((2-((S)-3-carboxybutanoyl)-4-fluoro-6-hydroxybenzo[b]thiophen-5-yl)oxy)propoxy)-6-methoxybenzo[b]thiophen-2-yl)-2-methyl-4-oxobutanoic acid]: 2 nM, 1 nM and 111%.
As for `COc1cc2sc(C(=O)C[C@H](C)C(=O)O)cc2c(Cl)c1OCCCOc1c(O)cc2sc(C(=O)C[C@H](C)C(=O)O)cc2c1F` [Example 190, (S)-4-(5-(3-((2-((S)-3-carboxybutanoyl)-4-chloro-6-methoxybenzo[b]thiophen-5-yl)oxy)propoxy)-4-fluoro-6-hydroxybenzo[b]thiophen-2-yl)-2-methyl-4-oxobutanoic acid], the EC50 was found to be 2 nM in assay [1] and 1 nM in assay [3]. Further, the activation at 3 µM in assay [2] is 126%.
